Values quoted from earlier work, collected in patent US20080108542A1, “Perfume Compositions” (priority 2005, published 2008).

conditions: 25° C.; data from literature or estimation software

SMILES | SVP (saturated vapour pressure) class
CC1=CC(C)C(C=O)CC1 (centres unmarked) [2,4-DIMETHYL-3-CYCLOHEXENE-1-CARBOXALDEHYDE] | && (SVPs greater than 125 micron Hg)
CC(C)CC1CCCC(C)(O)C1 (centres unmarked) [1-METHYL-3-(2-METHYLPROPYL)CYCLOHEXANOL] | & (SVPs in the range of 25 to 125 micron Hg)
CC1=CCC(C(C)(C)O)CC1 (stereo not drawn) [ALPHA-TERPINEOL] | & (SVPs in the range of 25 to 125 micron Hg)
COC1CC2CC1C1CC=CC21 (centres unmarked) [8-METHOXY-TRICYCLO[5.2.1.0{2,6}]DEC-3-ENE] | && (SVPs greater than 125 micron Hg)
CCCCCCCCCC(C)C=O (centres unmarked) [2-METHYLUNDECANAL] | & (SVPs in the range of 25 to 125 micron Hg)
CCC(C)(O)CCCC(C)C (centres unmarked) [TETRAHYDROLINALOL] | && (SVPs greater than 125 micron Hg)
C=CCOC(=O)COCC(C)CC (centres unmarked) [2-METHYLBUTYLOXYACETIC ACID, 2-PROPENYL ESTER] | & (SVPs in the range of 25 to 125 micron Hg)
CCOC(=O)C1=C(C)C=CCC1(C)C [ETHYL 2,6,6-TRIMETHYLCYCLOHEXA-1,3-DIENE-1-CARBOXYLATE] | & (SVPs in the range of 25 to 125 micron Hg)
CCCCCCCC1CCCO1 (centres unmarked) [2-N-HEPTYLTETRAHYDROFURAN] | && (SVPs greater than 125 micron Hg)
CCCCCCC1CCCC1=O (centres unmarked) [2-HEXYL-CYCLOPENTANONE] | & (SVPs in the range of 25 to 125 micron Hg)
CC(=O)OC1CCC(C(C)(C)C)CC1 (centres unmarked) [PARA TERT.BUTYL CYCLOHEXYL ACETATE] | & (SVPs in the range of 25 to 125 micron Hg)
CC/C=C/CC/C=C/C#N [(2E,6E)-NONA-2,6-DIENENITRILE] | & (SVPs in the range of 25 to 125 micron Hg)
CCCCC1OC(C)CC(C)(C)O1 (centres unmarked) [2-BUTYL-4,4,6-TRIMETHYL-1,3-DIOXAN] | && (SVPs greater than 125 micron Hg)
CCCCC/C=C/CCC=O [TRANS-4-DECENAL] | && (SVPs greater than 125 micron Hg)
